Results from paper PMC8991960, “A Bivalent Activatable Fluorescent Probe for Screening and Intravital Imaging of Chemotherapy‐Induced Cancer Cell Death” (Angewandte Chemie (International Ed. in English), 2021).

Legend:
8 cancer cell lines = assay: Classification of drugs by Apotracker Red (apoptosis) and CellTrace Violet (proliferation) staining; type: cell-based; settings: 24 h treatment; for Drug group by Apotracker Red (apoptosis) and CV (proliferation) staining: 8 cell lines, single-dose screen; for Effect on cell proliferation (CellTrace Violet): CellTrace Violet 1 µM, Figure S8
Method: To corroborate the versatility of Apotracker Red, we built a screening platform including a total of 8 cancer cell lines of variable origin and pathogenesis: breast (MCF7, MDA‐MB231 and MMTV‐PyMT (mouse mammary tumour virus‐polyoma middle tumour‐antigen)[23]), lung (A549), prostate (PC3 and LnCap), blood cells (Jurkat) and colon (HT29). All cell lines were cultured under standard conditions and seeded with the fluorescent proliferation marker CellTrace^TM Violet (CV) in 96‐well plates (10–20×10^3 cells/well) for high‐throughput flow cytometry. After drug treatment (i.e., drug addition plus 24 h incubation), Apotracker Red was incubated for 10 min and fluorescence readings were directly acquired without any additional processing steps (Figure 3 a). […] Using this platform, we tested a collection of FDA‐approved drugs in all cancer cell lines and compared their ability to induce apoptosis using Apotracker Red as the reporter. Specifically, we included DNA alkylation agents (e.g., cyclophosphamide, cisplatin, 5‐fluorouracil, gemcitabine, temozolomide), proteasomal and mitotic inhibitors (e.g., bortezomib, docetaxel, paclitaxel) and antagonists of specific proteins (e.g., dexamethasone, tamoxifen; Figure 3 b).
(§1) First, all drugs were tested in the 8 different cell lines to determine the percentages of Apotracker Red‐stained apoptotic cells compared to no treatment (Figure 3 c; Figure S8). […] All 5 drugs were tested at multiple concentrations (from 1 to 100 μM) and with incubation times up to 48 h to examine whether drugs could block cell proliferation at late stages (Figures S9–S13).
Figure S8. Heatmap of relative inhibition of cell proliferation (as indicated by staining of CellTraceTM Violet) after treatment of cancer cell lines with different drugs. Data presented as an average of 3 independent experiments. Cells were stained on day 0 with CellTraceTM Violet (1 µM) and mean fluorescence intensities were determined on the 5L LSR after 24 h of treatment with the different drugs.
(1 picture or pasted object on this page, not shown here) […]
(§2) Cell culture. MCF-7, A549, LnCap, MDA-MB-231, Jurkat T cells and PC3 cells were obtained from American Type Culture Collection (ATCC). HT29 cells were purchased from Merck (S i g m a Aldrich, UK). Mouse Mammary Tumour Virus –Polyoma Middle T antigen (MMTV -PyMT) cells were provided by the lab of Mikala Egeblad (CSHL, US). MMTV-PyMT, MCF-7, LnCap, MDA-MB-231 and Jurkat T cells were cultured in Roswell Park Memorial Institute (RPMI) 1640 Medium supplemented with 10% fetal bovine serum (FBS) , 100 U mL-1 penicillin and 0.1 mg mL-1 streptomycin. A549 and PC3 cells were cultured in Dublecco’s modified Eagle’s medium (DMEM) supplemented with 10% fetal bovine serum (FBS), 100 U mL-1 penicillin and 0.1 mg […]
(§3) Flow cytometry drug screen.

MDA-MB-231 cells = assay: Dose-dependency study with Apotracker Red; type: cell-based, human; settings: 1 to 100 µM, 48 h, Apotracker Red 150 nM
Method: as §1
Edinburgh. Human peripheral blood neutrophils were isolated as previously described.[3] Briefly, whole blood was drawn into tubes containing anti -coagulant 3.6% sodium citrate (final concentration: 0.4% (w/v)) and centrifuged at 350 g for 20 min at r.t. with lowest acceleration and no brake. Platelet-rich plasma was rem oved, and leukocytes separated from erythrocytes by 0.6% dextran sedimentation in saline for 30 min at r.t. The upper layer was further fractionated using an isotonic discontinuous Percoll density gradient. Neutrophils were harvested from the 63% and 72.9% interface and cultured in Iscove’s Modified Dulbecco’s Medium (IMDM, Gibco) in 5% h um an A B se rum fo r 1 8 h at 37°C, 5% CO2 to in du ce spontaneous […]
as §2, §3

[1] = system: breast cancer cells (MMTV-PyMT, MDA-MB231, MCF7); assay: Dose-dependency study with Apotracker Red and CellTrace Violet; type: cell-based, mouse and human; settings: 1 to 100 µM, 48 h, Apotracker Red 150 nM; 3 independent experiments
Method: as §1, with “S8). […] From this screen, we decided to select 5 drugs with potent pro‐apoptotic response in breast cancer, the most diagnosed cancer worldwide.[25] […] From group 2, we selected cyclophosphamide, tamoxifen, and 5‐fluorouracil as pro‐apoptotic molecules.” for “S8).”
Figure 4 Apotracker Red detects dose‐dependent chemotherapeutic‐induced apoptosis in mouse and human breast cancer cell lines. Cells were plated with 1 μM CV, treated with increasing concentrations (0, 1, 3, 10, 30 and 100 μM) of selected drugs for 48 h, and stained with Apotracker Red (150 nM) before data acquisition. Drugs: tamoxifen (beige), cisplatin (black), 5‐fluorouracil (green), gemcitabine (pink) and cyclophosphamide (red). Data presented as mean±SEM of 3 independent experiments.
Figure S9. Flow cytometry analysis of cisplatin in different breast cancer cell lines.
Representative flow cytometric plots (from three independent experiments) of MMTV-PyMT cells (a), MDA-MB231 cells (b) and MCF7 cells (c) after treatment with increasing concentrations of cisplatin for 48 h. Cells were stained on day 0 with CellTraceTM Violet (1 µ M) and with Apotracker Red (150 nM) before data acquisition.
(1 picture or pasted object on this page, not shown here)
Edinburgh. Human peripheral blood neutrophils were isolated as previously described.[3] […]
were centrifuged (300 g, 5 min, r.t.), washed once with PBS before addition of 0.05% Trypsin, 0.02% ethylenediaminetetraacetic acid (EDTA) in Hank’s balanced salt solution (HBSS) and incubation at 37°C for 5 min. […] Histograms and mean fluorescence intensities of […]

[2] = system: apoptotic cells (primary human neutrophils, Jurkat T cells); assay: Divalent cation-independent staining of apoptotic cells; type: cell-based; settings: 2.5 mM EDTA; Apotracker Red 150 nM, Annexin V-AF647 25 nM

Row | Molecule | Drug group by Apotracker Red (apoptosis) and CV (proliferation) staining (8 cancer cell lines) | Apotracker Red staining in MDA-MB-231 cells, dose-dependency study (MDA-MB-231 cells) | also measured
1 | O=c1[nH]cc(F)c(=O)[nH]1 [5-fluorouracil] | induced apoptosis with little reduction of cell proliferation | weaker Apotracker Red‐staining | 
2 | CC(C)C[C@H](NC(=O)[C@H](Cc1ccccc1)NC(=O)c1cnccn1)B(O)O [bortezomib] | induced apoptosis with little reduction of cell proliferation |  | Effect on cell proliferation (CellTrace Violet) (8 cancer cell lines): very minor effects on cell proliferation
3 | O=P1(N(CCCl)CCCl)NCCCO1 (stereo not drawn) [cyclophosphamide] |  | weaker Apotracker Red‐staining | 
4 | C[C@@H]1C[C@H]2[C@@H]3CCC4=CC(=O)C=C[C@]4(C)[C@@]3(F)[C@@H](O)C[C@]2(C)[C@@]1(O)C(=O)CO [dexamethasone] | had no impact on proliferation or apoptosis |  | 
5 | CC(=O)O[C@@]12CO[C@@H]1C[C@H](O)[C@@]1(C)C(=O)[C@H](O)C3=C(C)[C@@H](OC(=O)[C@H](O)[C@@H](NC(=O)OC(C)(C)C)c4ccccc4)C[C@@](O)([C@@H](OC(=O)c4ccccc4)[C@H]21)C3(C)C [docetaxel] | inhibited cell proliferation but showed little or no induction of apoptosis |  | 
6 | Nc1ccn([C@@H]2O[C@H](CO)[C@@H](O)C2(F)F)c(=O)n1 [gemcitabine] | induced apoptosis and decreased cell proliferation | weaker Apotracker Red‐staining | 
7 | CC(=O)O[C@H]1C(=O)[C@@]2(C)[C@H]([C@H](OC(=O)c3ccccc3)[C@]3(O)C[C@H](OC(=O)[C@H](O)[C@@H](NC(=O)c4ccccc4)c4ccccc4)C(C)=C1C3(C)C)[C@]1(OC(C)=O)CO[C@@H]1C[C@@H]2O [paclitaxel] | induced apoptosis with little reduction of cell proliferation |  | Effect on cell proliferation (CellTrace Violet) (8 cancer cell lines): very minor effects on cell proliferation
8 | CC/C(=C(\c1ccccc1)c1ccc(OCCN(C)C)cc1)c1ccccc1 [tamoxifen] | induced apoptosis with little reduction of cell proliferation |  | Percentages of Apotracker Red staining, dose-dependency study [1]: highest percentages of Apotracker Red staining across all breast cancer cells
9 | Cn1nnc2c(C(N)=O)ncn2c1=O [temozolomide] | inhibited cell proliferation but showed little or no induction of apoptosis |  | 
10 | Annexin V‐AF647: a 36 kDa protein marker of PtdSer in the presence of Ca2+ ions (protein, UniProt P08758 2-320, looked up, Alexa Fluor 647 label, a 36 kDa protein marker of PtdSer in the presence of Ca2+ ions) Annexin A5: AQVLRGTVTDFPGFDERADAETLRKAMKGLGTDEESILTLLTSRSNAQRQEISAAFKTLFGRDLLDDLKSELTGKFEKLIVALMKPSRLYDAYELKHALKGAGTNEKVLTEIIASRTPEELRAIKQVYEEEYGSSLEDDVVGDTSGYYQRMLVVLLQANRDPDAGIDEAQVEQDAQALFQAGELKWGTDEEKFITIFGTRSVSHLRKVFDKYMTISGFQIEETIDRETSGNLEQLLLAVVKSIRSIPAYLAETLYYAMKGAGTDDHTLIRVMVSRSEIDLFNIRKEFRKNFATSLYSMIKGDTSGDYKKALLLLCGEDD |  |  | Staining of apoptotic cells after chelation of divalent cations [2]: failed to bind
